Assay results from PubChem BioAssay (NCI).
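Test compounds were applied to cells in 96-well plates for 48 hours at 5 doses. Definition used: TGI = concentration required for complete inhibition of growth.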

Assays:
Assay in all cases: NCI-60 cell line screen, 48 h
A549 NSCLC = test system: A549 NSCLC
U251 CNS = test system: U251 CNS
EKVX NSCLC = test system: EKVX NSCLC
CAKI-1 renal = test system: CAKI-1 renal
OVCAR-8 ovarian = test system: OVCAR-8 ovarian
BT-549 breast = test system: BT-549 breast
NCI-H460 lung = test system: NCI-H460 lung
RXF 393 renal = test system: RXF 393 renal
ACHN renal = test system: ACHN renal
SNB-19 CNS = test system: SNB-19 CNS
UACC-62 melanoma = test system: UACC-62 melanoma
SK-MEL-28 melanoma = test system: SK-MEL-28 melanoma
K-562 leukemia = test system: K-562 leukemia
SF-295 CNS = test system: SF-295 CNS
MDA-N = test system: MDA-N
NCI-H226 lung = test system: NCI-H226 lung
SF-268 CNS = test system: SF-268 CNS
MOLT-4 leukemia = test system: MOLT-4 leukemia
MALME-3M melanoma = test system: MALME-3M melanoma
MDA-MB-435 = test system: MDA-MB-435
SNB-75 CNS = test system: SNB-75 CNS
KM12 colon = test system: KM12 colon
OVCAR-4 ovarian = test system: OVCAR-4 ovarian
T-47D breast = test system: T-47D breast
SN12C renal = test system: SN12C renal
OVCAR-3 ovarian = test system: OVCAR-3 ovarian
SK-MEL-5 melanoma = test system: SK-MEL-5 melanoma
HCT-15 colon = test system: HCT-15 colon
UACC-257 melanoma = test system: UACC-257 melanoma
TK-10 renal = test system: TK-10 renal
SR leukemia = test system: SR leukemia
NCI-H23 lung = test system: NCI-H23 lung
UO-31 renal = test system: UO-31 renal
HL-60(TB) leukemia = test system: HL-60(TB) leukemia
COLO 205 colon = test system: COLO 205 colon
HCT-116 colon = test system: HCT-116 colon
HOP-62 NSCLC = test system: HOP-62 NSCLC
SF-539 CNS = test system: SF-539 CNS
M14 melanoma = test system: M14 melanoma
MDA-MB-231 breast = test system: MDA-MB-231 breast
HS 578T breast = test system: HS 578T breast
MCF7 breast = test system: MCF7 breast
SK-MEL-2 melanoma = test system: SK-MEL-2 melanoma
LOX IMVI melanoma = test system: LOX IMVI melanoma
PC-3 prostate = test system: PC-3 prostate
OVCAR-5 ovarian = test system: OVCAR-5 ovarian
786-0 renal = test system: 786-0 renal
A498 renal = test system: A498 renal
CCRF-CEM leukemia = test system: CCRF-CEM leukemia
HOP-92 NSCLC = test system: HOP-92 NSCLC
NCI-H522 lung = test system: NCI-H522 lung
DU-145 prostate = test system: DU-145 prostate
NCI/ADR-RES ovarian = test system: NCI/ADR-RES ovarian
SK-OV-3 ovarian = test system: SK-OV-3 ovarian
SW-620 colon = test system: SW-620 colon
RPMI-8226 leukemia = test system: RPMI-8226 leukemia
IGROV1 ovarian = test system: IGROV1 ovarian
HCC-2998 colon = test system: HCC-2998 colon
HT29 colon = test system: HT29 colon

How did the TGI (A549 NSCLC) turn out when `COc1c(C)c(OC)c2c(c1O)[C@@H]1[C@@H]3Cc4c(OC)c(C)c(OC)c(O)c4[C@H](CNC(=O)c4cnc5ccccc5n4)N3[C@@H](C#N)[C@H](C2)N1C` was run?
Its TGI is greater than 100 nM.

What about the TGI (U251 CNS) of the same compound?
Its TGI is greater than 36.1 nM.

What about the TGI (EKVX NSCLC) of the same compound?
The TGI was greater than 7.03 nM.

What about the TGI (CAKI-1 renal) of the same compound?
The TGI was greater than 39.1 nM.

What about the TGI (OVCAR-8 ovarian) of the same compound?
The TGI was 21.2 nM.

And the TGI (BT-549 breast)?
Its TGI is 20 nM.

What about the TGI (NCI-H460 lung) of the same compound?
Its TGI is greater than 100 nM.

And the TGI (RXF 393 renal)?
The TGI was greater than 36.8 nM.

And the TGI (ACHN renal)?
The TGI was greater than 41.4 nM.

What about the TGI (SNB-19 CNS) of the same compound?
The TGI was greater than 53.3 nM.

And the TGI (UACC-62 melanoma)?
The TGI was 3.46 nM.

And the TGI (SK-MEL-28 melanoma)?
Its TGI is 7.33 nM.

And the TGI (K-562 leukemia)?
The TGI was 18 nM.

What about the TGI (SF-295 CNS) of the same compound?
Its TGI is greater than 29.4 nM.

And the TGI (MDA-N)?
The TGI was 3.62 nM.

And the TGI (NCI-H226 lung)?
Its TGI is 6.22 nM.

What about the TGI (SF-268 CNS) of the same compound?
Its TGI is greater than 100 nM.

And the TGI (MOLT-4 leukemia)?
Its TGI is 2.62 nM.

What about the TGI (MALME-3M melanoma) of the same compound?
Its TGI is 4.58 nM.

What about the TGI (MDA-MB-435) of the same compound?
Its TGI is 6.22 nM.

What about the TGI (SNB-75 CNS) of the same compound?
The TGI was 5.52 nM.

What about the TGI (KM12 colon) of the same compound?
Its TGI is 3.82 nM.

What about the TGI (OVCAR-4 ovarian) of the same compound?
Its TGI is 8.98 nM.

What about the TGI (T-47D breast) of the same compound?
Its TGI is 6.76 nM.

And the TGI (SN12C renal)?
The TGI was greater than 71.8 nM.

And the TGI (OVCAR-3 ovarian)?
The TGI was 16.8 nM.

And the TGI (SK-MEL-5 melanoma)?
Its TGI is 18.7 nM.

And the TGI (HCT-15 colon)?
The TGI was greater than 71.6 nM.

What about the TGI (UACC-257 melanoma) of the same compound?
The TGI was 7.56 nM.

And the TGI (TK-10 renal)?
The TGI was 24.8 nM.

And the TGI (SR leukemia)?
Its TGI is 1.4 nM.

And the TGI (NCI-H23 lung)?
Its TGI is 12.1 nM.

What about the TGI (UO-31 renal) of the same compound?
The TGI was greater than 42.3 nM.

What about the TGI (HL-60(TB) leukemia) of the same compound?
Its TGI is 5.54 nM.

And the TGI (COLO 205 colon)?
The TGI was 11.4 nM.

What about the TGI (HCT-116 colon) of the same compound?
Its TGI is greater than 100 nM.

What about the TGI (HOP-62 NSCLC) of the same compound?
The TGI was greater than 100 nM.

And the TGI (SF-539 CNS)?
Its TGI is 10.4 nM.

And the TGI (M14 melanoma)?
The TGI was 5.68 nM.

And the TGI (MDA-MB-231 breast)?
Its TGI is 32 nM.

And the TGI (HS 578T breast)?
Its TGI is 19.2 nM.

What about the TGI (MCF7 breast) of the same compound?
Its TGI is greater than 100 nM.

And the TGI (SK-MEL-2 melanoma)?
The TGI was 7.33 nM.

And the TGI (LOX IMVI melanoma)?
The TGI was greater than 27.3 nM.

And the TGI (PC-3 prostate)?
The TGI was greater than 55.6 nM.

And the TGI (OVCAR-5 ovarian)?
Its TGI is greater than 100 nM.

And the TGI (786-0 renal)?
The TGI was greater than 100 nM.

What about the TGI (A498 renal) of the same compound?
Its TGI is 8.94 nM.

And the TGI (CCRF-CEM leukemia)?
The TGI was 5.4 nM.

And the TGI (HOP-92 NSCLC)?
The TGI was 12.9 nM.

What about the TGI (NCI-H522 lung) of the same compound?
Its TGI is 5.16 nM.

What about the TGI (DU-145 prostate) of the same compound?
Its TGI is greater than 20.6 nM.

And the TGI (NCI/ADR-RES ovarian)?
The TGI was greater than 100 nM.

What about the TGI (SK-OV-3 ovarian) of the same compound?
Its TGI is greater than 44.5 nM.

What about the TGI (SW-620 colon) of the same compound?
Its TGI is greater than 31.3 nM.

How did the TGI (A549 NSCLC) turn out when `CC1(C)Oc2ccc(NC(=O)CCC(N)C(=O)O)cc2O1` (configuration not stated) was run?
The TGI was greater than 100000 nM.

What about the TGI (U251 CNS) of the same compound?
The TGI was greater than 100000 nM.

And the TGI (EKVX NSCLC)?
Its TGI is greater than 100000 nM.

What about the TGI (RPMI-8226 leukemia) of the same compound?
The TGI was greater than 100000 nM.

What about the TGI (CAKI-1 renal) of the same compound?
The TGI was greater than 100000 nM.

What about the TGI (OVCAR-8 ovarian) of the same compound?
Its TGI is greater than 100000 nM.

And the TGI (BT-549 breast)?
Its TGI is greater than 100000 nM.

And the TGI (NCI-H460 lung)?
The TGI was greater than 100000 nM.

And the TGI (RXF 393 renal)?
Its TGI is greater than 100000 nM.

What about the TGI (ACHN renal) of the same compound?
Its TGI is greater than 100000 nM.

What about the TGI (IGROV1 ovarian) of the same compound?
The TGI was greater than 100000 nM.

What about the TGI (SNB-19 CNS) of the same compound?
The TGI was greater than 100000 nM.

What about the TGI (UACC-62 melanoma) of the same compound?
Its TGI is greater than 100000 nM.

And the TGI (SK-MEL-28 melanoma)?
Its TGI is greater than 100000 nM.

And the TGI (K-562 leukemia)?
The TGI was greater than 100000 nM.

And the TGI (SF-295 CNS)?
The TGI was greater than 100000 nM.

And the TGI (MDA-N)?
Its TGI is greater than 100000 nM.

What about the TGI (NCI-H226 lung) of the same compound?
Its TGI is greater than 100000 nM.

What about the TGI (MOLT-4 leukemia) of the same compound?
The TGI was greater than 100000 nM.

And the TGI (MALME-3M melanoma)?
The TGI was greater than 100000 nM.

And the TGI (MDA-MB-435)?
The TGI was greater than 100000 nM.

What about the TGI (SNB-75 CNS) of the same compound?
The TGI was greater than 100000 nM.

What about the TGI (KM12 colon) of the same compound?
Its TGI is greater than 100000 nM.

And the TGI (OVCAR-4 ovarian)?
The TGI was greater than 100000 nM.

What about the TGI (T-47D breast) of the same compound?
The TGI was greater than 100000 nM.

And the TGI (SN12C renal)?
Its TGI is greater than 100000 nM.

What about the TGI (OVCAR-3 ovarian) of the same compound?
The TGI was greater than 100000 nM.

And the TGI (SK-MEL-5 melanoma)?
Its TGI is greater than 100000 nM.

What about the TGI (HCT-15 colon) of the same compound?
Its TGI is greater than 100000 nM.

And the TGI (HCC-2998 colon)?
The TGI was greater than 100000 nM.

What about the TGI (TK-10 renal) of the same compound?
The TGI was greater than 100000 nM.

And the TGI (SR leukemia)?
The TGI was greater than 100000 nM.

And the TGI (NCI-H23 lung)?
Its TGI is greater than 100000 nM.

What about the TGI (UO-31 renal) of the same compound?
Its TGI is greater than 100000 nM.

What about the TGI (HL-60(TB) leukemia) of the same compound?
The TGI was greater than 100000 nM.

And the TGI (COLO 205 colon)?
Its TGI is greater than 100000 nM.

And the TGI (HCT-116 colon)?
Its TGI is greater than 100000 nM.

And the TGI (HOP-62 NSCLC)?
The TGI was greater than 100000 nM.

And the TGI (SF-539 CNS)?
The TGI was greater than 100000 nM.

And the TGI (HT29 colon)?
Its TGI is greater than 100000 nM.

What about the TGI (M14 melanoma) of the same compound?
Its TGI is greater than 100000 nM.

What about the TGI (MDA-MB-231 breast) of the same compound?
Its TGI is greater than 100000 nM.

What about the TGI (HS 578T breast) of the same compound?
Its TGI is greater than 100000 nM.

And the TGI (MCF7 breast)?
Its TGI is greater than 100000 nM.

What about the TGI (SK-MEL-2 melanoma) of the same compound?
The TGI was greater than 100000 nM.

What about the TGI (LOX IMVI melanoma) of the same compound?
The TGI was greater than 100000 nM.

What about the TGI (PC-3 prostate) of the same compound?
The TGI was greater than 100000 nM.

And the TGI (OVCAR-5 ovarian)?
The TGI was greater than 100000 nM.

What about the TGI (786-0 renal) of the same compound?
Its TGI is greater than 100000 nM.

What about the TGI (A498 renal) of the same compound?
The TGI was greater than 100000 nM.

And the TGI (CCRF-CEM leukemia)?
The TGI was greater than 100000 nM.

And the TGI (HOP-92 NSCLC)?
Its TGI is greater than 100000 nM.

And the TGI (NCI-H522 lung)?
The TGI was greater than 100000 nM.

What about the TGI (DU-145 prostate) of the same compound?
Its TGI is greater than 100000 nM.

What about the TGI (NCI/ADR-RES ovarian) of the same compound?
Its TGI is greater than 100000 nM.

And the TGI (SK-OV-3 ovarian)?
The TGI was greater than 100000 nM.

And the TGI (SW-620 colon)?
The TGI was greater than 100000 nM.
